Tested on: 598228-144-R-J1-PDC complex spheroid viability
Experiment: Anticancer human tumor 598228-144-R-J1-PDC patient-derived serous endometrial adenocarcinoma cell line growth inhibition [GQUAD]
Details: for IC50: curve of first compound; for viability, T/C: stronger effect = lower value
Description: DNA G-quadruplex Stabilizer Agents in Combinations in Complex Spheroids
A high-throughput screen of multi-cell type tumor spheroids was designed to identify active combinations of DNA G-quadruplex stabilizer agents and targeted small molecules. Complex spheroids include a stromal component modeled by human endothelial cells (HUVEC) and fibroblasts modeled by human mesenchymal stem cells (MSCs). The concentration ranges selected for each drug and investigational agent were based upon clinically achievable concentrations if the clinical Cmax of the agent was known.
Compounds. The drugs and investigational agents: pidnarulex (CX-5461; NSC782164), APTO-253 (NSC789042), BRACO-19 (NSC847499), peposertib (NSC802822), ceralasertib (NSC780249), elimusertib (NSC800525), camonsertib (NSC841442), AZD-1390 (NSC803789), olaparib (NSC753686), talazoparib (NSC767125), ART-558 (NSC835418), sotorasib (NSC818433), MRTX-1133 (NSC836407), SN-38 (NSC673596), topotecan (NSC609699), etoposide (NSC141540), doxorubicin (NSC123127), gemcitabine (NSC613327), 5-fluorouracil (NSC19893), paclitaxel (NSC125973), vemurafenib (NSC761431), panobinostat (NSC761190), R-306465 (JNJ-16241199; NSC773264), adavosertib (NSC754352), TP-3654 (NSC805149), carboplatin (NSC241240), KSQ-4279 (NSC840948), and staurosporine (NSC755774) were obtained from the National Cancer Institute (NCI) Developmental Therapeutics Program Chemical Repository (34). The FDA-approved anticancer drug set is available from the NCI Developmental Therapeutics Program. […] The stock solutions were prepared in dimethyl sulfoxide (DMSO, Sigma-Aldrich, St. Louis, MO, cat. D2650) at 800-fold the tested concentration and stored at -70 degrees C prior to their use. All drugs and investigational agents were tested over a range starting from a high concentration at or near the clinical Cmax and decreasing in half-log increments. If the clinical Cmax for an agent had not been determined, the highest concentration tested was 10 microM.
2.3 Cell Culture. All cells were maintained in an incubator at 37 degrees C and 5% CO2 with 95% humidity. The PDC lines were cultured according to standard operating procedures established by the NCI PDMR. All PDCs were thawed and cultured in Matrigel-coated flasks prepared with a working solution of 1X Ham's F-12 nutrient mix, without supplementation (Invitrogen, cat. 11765054), 100 U/mL penicillin-streptomycin (Invitrogen, cat. 15140122), and 2.5% Matrigel (Corning Inc., cat. 354248) for the first three passages. The 857933-349-R-J2-PDC line was cultured in 6C/Colon 1B media, which includes advanced DMEM/F-12 (Thermo Fisher Scientific, cat. 12634028), 10 mM HEPES (Thermo Fisher Scientific, cat. 15630080), 1X GlutaMAX supplement (Thermo Fisher Scientific, cat. 35050061), 0.1 mg/mL primocin (InvivoGen, cat. ant-pm-2), 10% defined fetal bovine serum, heat inactivated (HyClone Laboratories Inc., cat. SH30070.03HI), 50% L-WRN conditioned media (ATCC, cat. CRL-3276), 1.25 mM N-Acetyl-L-cysteine (Sigma-Aldrich, cat. A9165), 10 mM nicotinamide (Sigma-Aldrich, cat. N0636), 1X B-27 supplement (Thermo Fisher Scientific, cat. 17504044), 1X N-2 supplement (Thermo Fisher Scientific, cat. 17502048), 10 microM Y-27632 dihydrochloride (Tocris Bioscience, cat. 1254), and 50 ng/mL human EGF recombinant protein (Thermo Fisher Scientific, cat. PHG0311). The 485176-168-R4-J1-PDC line was cultured in Panc media, which includes all 6C/Colon 1B media components plus 100 ng/mL human FGF-10 (Thermo Fisher Scientific, cat. 100-26), 500 nM SB-431542 (Selleckchem, cat. S1067), and gastrin (Tocris, cat. 3006).
[…]

[1] = second compound 0.0316 µM, first compound 0.0316 µM
[2] = second compound 0.0316 µM, first compound 0.316 µM
[3] = second compound 0.1 µM, first compound 0.0316 µM
[4] = second compound 0.1 µM, first compound 0.316 µM
[5] = second compound 0.316 µM, first compound 0.0316 µM
[6] = second compound 0.316 µM, first compound 0.316 µM
[7] = second compound 1 µM, first compound 0.0316 µM
[8] = second compound 1 µM, first compound 0.316 µM
[9] = second compound 3.16 µM, first compound 0.0316 µM
[10] = second compound 3.16 µM, first compound 0.316 µM
[11] = second compound 10 µM, first compound 0.0316 µM
[12] = second compound 10 µM, first compound 0.316 µM
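Note: spheroids exposed to the agents for one week before reading.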
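Throughout, for viability, T/C: percent of vehicle DMSO control viability so 100% = untreated growth.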

Cc1cccc(N(C)C(=O)C2C(O)CCN2c2nc(C)cc(C(F)(F)F)c2C#N)c1 (centres undefined) + Cc1cnc(CNC(=O)c2c(=O)c3ccc(N4CCCN(C)CC4)nc3n3c2sc2ccccc23)cn1
IC50 (second compound 0.0316 µM): > 10000 nM | IC50 (second compound 0.1 µM): > 10000 nM | IC50 (second compound 0.316 µM): > 10000 nM | IC50 (second compound 1 µM): > 10000 nM | IC50 (second compound 3.16 µM): > 10000 nM | IC50 (second compound 10 µM): < 31.6 nM | viability, T/C [1]: 92.7% | viability, T/C (second compound 0.0316 µM, first compound 0.1 µM): 83.7% | viability, T/C [2]: 91% | viability, T/C (second compound 0.0316 µM, first compound 1 µM): 99% | viability, T/C (second compound 0.0316 µM, first compound 3.16 µM): 112% | viability, T/C (second compound 0.0316 µM, first compound 10 µM): 91.4% | viability, T/C [3]: 76.8% | viability, T/C (second compound 0.1 µM, first compound 0.1 µM): 69.3% | viability, T/C [4]: 64.4% | viability, T/C (second compound 0.1 µM, first compound 1 µM): 67.9% | viability, T/C (second compound 0.1 µM, first compound 3.16 µM): 86.6% | viability, T/C (second compound 0.1 µM, first compound 10 µM): 66.5% | viability, T/C [5]: 63.2% | viability, T/C (second compound 0.316 µM, first compound 0.1 µM): 66.6% | viability, T/C [6]: 70.3% | viability, T/C (second compound 0.316 µM, first compound 1 µM): 63.6% | viability, T/C (second compound 0.316 µM, first compound 3.16 µM): 61.3% | viability, T/C (second compound 0.316 µM, first compound 10 µM): 60.2% | viability, T/C [7]: 68.9% | viability, T/C (second compound 1 µM, first compound 0.1 µM): 62.5% | viability, T/C [8]: 58.7% | viability, T/C (second compound 1 µM, first compound 1 µM): 61.9% | viability, T/C (second compound 1 µM, first compound 3.16 µM): 58.3% | viability, T/C (second compound 1 µM, first compound 10 µM): 60.5% | viability, T/C [9]: 52.4% | viability, T/C (second compound 3.16 µM, first compound 0.1 µM): 58.3% | viability, T/C [10]: 57.9% | viability, T/C (second compound 3.16 µM, first compound 1 µM): 44.3% | viability, T/C (second compound 3.16 µM, first compound 3.16 µM): 58.7% | viability, T/C (second compound 3.16 µM, first compound 10 µM): 50.5% | viability, T/C [11]: 55.8% | viability, T/C (second compound 10 µM, first compound 0.1 µM): 45.7% | viability, T/C [12]: 37.8% | viability, T/C (second compound 10 µM, first compound 1 µM): 46% | viability, T/C (second compound 10 µM, first compound 3.16 µM): 66.1% | viability, T/C (second compound 10 µM, first compound 10 µM): 36.2%

Cn1ncnc1[C@H]1c2n[nH]c(=O)c3cc(F)cc(c23)N[C@@H]1c1ccc(F)cc1 + Cc1cnc(CNC(=O)c2c(=O)c3ccc(N4CCCN(C)CC4)nc3n3c2sc2ccccc23)cn1
IC50 (second compound 0.0316 µM): > 316 nM | IC50 (second compound 0.1 µM): > 316 nM | IC50 (second compound 0.316 µM): > 316 nM | IC50 (second compound 1 µM): > 316 nM | IC50 (second compound 3.16 µM): 193 nM | IC50 (second compound 10 µM): 0.999 nM | viability, T/C (second compound 0.0316 µM, first compound 0.000999 µM): 81.7% | viability, T/C (second compound 0.0316 µM, first compound 0.00316 µM): 94% | viability, T/C (second compound 0.0316 µM, first compound 0.00999 µM): 87.3% | viability, T/C [1]: 68.3% | viability, T/C (second compound 0.0316 µM, first compound 0.0999 µM): 74.4% | viability, T/C [2]: 54.7% | viability, T/C (second compound 0.1 µM, first compound 0.000999 µM): 79.1% | viability, T/C (second compound 0.1 µM, first compound 0.00316 µM): 70.3% | viability, T/C (second compound 0.1 µM, first compound 0.00999 µM): 61.2% | viability, T/C [3]: 56.4% | viability, T/C (second compound 0.1 µM, first compound 0.0999 µM): 60.3% | viability, T/C [4]: 63.1% | viability, T/C (second compound 0.316 µM, first compound 0.000999 µM): 66.3% | viability, T/C (second compound 0.316 µM, first compound 0.00316 µM): 76.4% | viability, T/C (second compound 0.316 µM, first compound 0.00999 µM): 56.8% | viability, T/C [5]: 55.9% | viability, T/C (second compound 0.316 µM, first compound 0.0999 µM): 59% | viability, T/C [6]: 55.1% | viability, T/C (second compound 1 µM, first compound 0.000999 µM): 55.5% | viability, T/C (second compound 1 µM, first compound 0.00316 µM): 54.3% | viability, T/C (second compound 1 µM, first compound 0.00999 µM): 56% | viability, T/C [7]: 64.2% | viability, T/C (second compound 1 µM, first compound 0.0999 µM): 59.3% | viability, T/C [8]: 64.1% | viability, T/C (second compound 3.16 µM, first compound 0.000999 µM): 57.5% | viability, T/C (second compound 3.16 µM, first compound 0.00316 µM): 53.8% | viability, T/C (second compound 3.16 µM, first compound 0.00999 µM): 52.9% | viability, T/C [9]: 58.5% | viability, T/C (second compound 3.16 µM, first compound 0.0999 µM): 57% | viability, T/C [10]: 42% | viability, T/C (second compound 10 µM, first compound 0.000999 µM): 40.5% | viability, T/C (second compound 10 µM, first compound 0.00316 µM): 45.7% | viability, T/C (second compound 10 µM, first compound 0.00999 µM): 59.1% | viability, T/C [11]: 38.1% | viability, T/C (second compound 10 µM, first compound 0.0999 µM): 51.7% | viability, T/C [12]: 32.5%

— PubChem BioAssay AID2060506 (Molecular Pharmacology Branch, DTP, NCI, 2025)
